Values quoted from earlier work as cited in US20230233572A1, “OPHTHALMIC COMPOSITIONS COMPRISING A COMBINATION OF FLUOROQUINOLONE ANTIBACTERIAL AGENT AND AN ANTI-INFLAMMATORY AGENT” (priority 2020, published 2023).

System: corneal surface of rabbit eyes
Conditions: in vivo

CC(O)COC[C@H]1O[C@@H]2O[C@H]3[C@H](O)[C@@H](O)[C@@H](O[C@H]4[C@H](O)[C@@H](O)[C@@H](O[C@H]5[C@H](O)[C@@H](O)[C@@H](O[C@H]6[C@H](O)[C@@H](O)[C@@H](O[C@H]7[C@H](O)[C@@H](O)[C@@H](O[C@H]8[C@H](O)[C@@H](O)[C@@H](O[C@H]1[C@H](O)[C@H]2O)O[C@@H]8COCC(C)O)O[C@@H]7COCC(C)O)O[C@@H]6COCC(C)O)O[C@@H]5COCC(C)O)O[C@@H]4COCC(C)O)O[C@@H]3COCC(C)O (stereo partly drawn) [HP-β-CD, hydroxypropyl-β-cyclodextrin]
Tolerance by the corneal surface: well tolerated
Toxicity or irritation in rabbit eyes: not to be toxic or irritating
